# The source made the active and inactive calls. The rule behind the calls is not given here.
# Columns and labels:
# [1] = system: Rattus norvegicus; test: Neurotoxicity in Sprague-Dawley rat assessed as neurological impairment at 30 mg/kg, po measured after 1 hr; type: toxicity, organism-based; design: dose 30 mg/kg, route oral; conditions: in vivo
# [2] = system: Rattus norvegicus; test: Anticonvulsant activity in Sprague-Dawley rat assessed as protection against maximum electroshock at 30 mg/kg, po measured after 0.5 hrs; type: functional, organism-based; design: dose 30 mg/kg
# [3] = system: Rattus norvegicus; test: Neurotoxicity in Sprague-Dawley rat assessed as neurological impairment at 30 mg/kg, po measured after 0.5 hrs; type: toxicity, organism-based; design: dose 30 mg/kg, route oral; conditions: in vivo
# [4] = system: Mus musculus; test: Anticonvulsant activity in Carworth farms No.1 albino mouse assessed as protection against maximum electroshock at 30 mg/kg, ip measured after 4 hrs; type: functional, organism-based; design: dose 30 mg/kg
# [5] = system: Mus musculus; test: Anticonvulsant activity in Carworth farms No.1 albino mouse assessed as protection against 6 Hz electric current-induced seizure at 100 mg/kg, ip measured after 1 hrs; type: functional, organism-based; design: dose 100 mg/kg
# [6] = system: Mus musculus; test: Neurotoxicity in Carworth farms No.1 albino mouse assessed as inability to grasp rotarod at 100 mg/kg, ip measured after 0.5 hr; type: toxicity, organism-based; design: dose 100 mg/kg, route intraperitoneal; conditions: in vivo
# [7] = system: Mus musculus; test: Anticonvulsant activity in Carworth farms No.1 albino mouse assessed as protection against maximum electroshock at 100 mg/kg, ip measured after 4 hrs; type: functional, organism-based; design: dose 100 mg/kg
# [8] = system: Mus musculus; test: Neurotoxicity in Carworth farms No.1 albino mouse assessed as neurological impairment at 30 mg/kg, ip measured after 0.5 hrs; type: toxicity, organism-based; design: dose 30 mg/kg, route intraperitoneal; conditions: in vivo
# [9] = system: Rattus norvegicus; test: Anticonvulsant activity in Sprague-Dawley rat assessed as protection against maximum electroshock at 30 mg/kg, po measured after 4 hrs; type: functional, organism-based; design: dose 30 mg/kg
# [10] = system: Mus musculus; test: Anticonvulsant activity in Carworth farms No.1 albino mouse assessed as protection against subcutaneous metrazole-induced seizures at 100 mg/kg, ip measured after 0.5 hrs; type: functional, organism-based; design: dose 100 mg/kg
# [11] = system: Mus musculus; test: Anticonvulsant activity in Carworth farms No.1 albino mouse assessed as protection against maximum electroshock at 30 mg/kg, ip measured after 0.5 hrs; type: functional, organism-based; design: dose 30 mg/kg
# [12] = system: Mus musculus; test: Anticonvulsant activity in Carworth farms No.1 albino mouse assessed as protection against subcutaneous metrazole-induced seizures at 300 mg/kg, ip measured after 0.5 hrs; type: functional, organism-based; design: dose 300 mg/kg
# [13] = system: Rattus norvegicus; test: Neurotoxicity in Sprague-Dawley rat assessed as neurological impairment at 30 mg/kg, po measured after 2 hrs; type: toxicity, organism-based; design: dose 30 mg/kg, route oral; conditions: in vivo
# [14] = system: Mus musculus; test: Neurotoxicity in Carworth farms No.1 albino mouse assessed as neurological impairment at 100 mg/kg, ip measured after 4 hrs; type: toxicity, organism-based; design: dose 100 mg/kg, route intraperitoneal; conditions: in vivo
# [15] = system: Mus musculus; test: Neurotoxicity in Carworth farms No.1 albino mouse assessed as inability to grasp rotarod at 100 mg/kg, ip measured after 0.25 hr; type: toxicity, organism-based; design: dose 100 mg/kg, route intraperitoneal; conditions: in vivo
# [16] = system: Rattus norvegicus; test: Anticonvulsant activity in Sprague-Dawley rat assessed as protection against maximum electroshock at 30 mg/kg, po measured after 0.25 hrs; type: functional, organism-based; design: dose 30 mg/kg
# [17] = system: Mus musculus; test: Anticonvulsant activity in Carworth farms No.1 albino mouse assessed as protection against 6 Hz electric current-induced seizure at 100 mg/kg, ip measured after 2 hrs; type: functional, organism-based; design: dose 100 mg/kg
# [18] = system: Mus musculus; test: Neurotoxicity in Carworth farms No.1 albino mouse assessed as neurological impairment at 30 mg/kg, ip measured after 4 hrs; type: toxicity, organism-based; design: dose 30 mg/kg, route intraperitoneal; conditions: in vivo
# [19] = system: Rattus norvegicus; test: Anticonvulsant activity in Sprague-Dawley rat assessed as protection against maximum electroshock at 30 mg/kg, po measured after 2 hrs; type: functional, organism-based; design: dose 30 mg/kg
# [20] = system: Mus musculus; test: Neurotoxicity in Carworth farms No.1 albino mouse assessed as neurological impairment at 100 mg/kg, ip measured after 1 hr; type: toxicity, organism-based; design: dose 100 mg/kg, route intraperitoneal; conditions: in vivo
# [21] = system: Mus musculus; test: Anticonvulsant activity in Carworth farms No.1 albino mouse assessed as protection against subcutaneous metrazole-induced seizures at 30 mg/kg, ip measured after 4 hrs; type: functional, organism-based; design: dose 30 mg/kg
# [22] = system: Mus musculus; test: Neurotoxicity in Carworth farms No.1 albino mouse assessed as neurological impairment at 100 mg/kg, ip measured after 2 hr; type: toxicity, organism-based; design: dose 100 mg/kg, route intraperitoneal; conditions: in vivo
# [23] = system: Rattus norvegicus; test: Neurotoxicity in Sprague-Dawley rat assessed as neurological impairment at 30 mg/kg, po measured after 4 hrs; type: toxicity, organism-based; design: dose 30 mg/kg, route oral; conditions: in vivo
# [24] = system: Mus musculus; test: Anticonvulsant activity in ip dosed Carworth farms No.1 albino mouse assessed as protection against 6 Hz electric current-induced seizure measured after 0.25 hrs; type: functional
# [25] = species on record: Mus musculus; test: Anticonvulsant activity in electric shock-induced Carworth farms No.1 albino mouse assessed as time of peak effect; type: functional
# [26] = system: Mus musculus; test: Neurotoxicity in Carworth farms No.1 albino mouse assessed as neurological impairment at 300 mg/kg, ip measured after 0.5 hrs; type: toxicity, organism-based; design: dose 300 mg/kg, route intraperitoneal; conditions: in vivo
# [27] = system: Mus musculus; test: Anticonvulsant activity in Carworth farms No.1 albino mouse assessed as protection against 6 Hz electric current-induced seizure at 100 mg/kg, ip measured after 4 hrs; type: functional, organism-based; design: dose 100 mg/kg
# [28] = system: Mus musculus; test: Anticonvulsant activity in Carworth farms No.1 albino mouse assessed as protection against maximum electroshock at 100 mg/kg, ip measured after 0.5 hrs; type: functional, organism-based; design: dose 100 mg/kg
# [29] = system: Mus musculus; test: Anticonvulsant activity in Carworth farms No.1 albino mouse assessed as protection against maximum electroshock at 300 mg/kg, ip measured after 0.5 hrs; type: functional, organism-based; design: dose 300 mg/kg
# [30] = system: Rattus norvegicus; test: Neurotoxicity in Sprague-Dawley rat assessed as neurological impairment at 30 mg/kg, po measured after 0.25 hrs; type: toxicity, organism-based; design: dose 30 mg/kg, route oral; conditions: in vivo
# [31] = system: Rattus norvegicus; test: Anticonvulsant activity in Sprague-Dawley rat assessed as protection against maximum electroshock at 30 mg/kg, po measured after 1 hr; type: functional, organism-based; design: dose 30 mg/kg
# [32] = system: Mus musculus; test: Neurotoxicity in Carworth farms No.1 albino mouse assessed as sedation at 300 mg/kg, ip measured after 4 hrs; type: toxicity, organism-based; design: dose 300 mg/kg, route intraperitoneal; conditions: in vivo
# [33] = system: Mus musculus; test: Anticonvulsant activity in Carworth farms No.1 albino mouse assessed as protection against subcutaneous metrazole-induced seizures at 100 mg/kg, ip measured after 4 hrs; type: functional, organism-based; design: dose 100 mg/kg
# [34] = system: Mus musculus; test: Anticonvulsant activity in Carworth farms No.1 albino mouse assessed as protection against 6 Hz electric current-induced seizure at 100 mg/kg, ip measured after 0.5 hrs; type: functional, organism-based; design: dose 100 mg/kg
# [35] = system: Mus musculus; test: Anticonvulsant activity in Carworth farms No.1 albino mouse assessed as protection against subcutaneous metrazole-induced seizures at 30 mg/kg, ip measured after 0.5 hrs; type: functional, organism-based; design: dose 30 mg/kg
# [36] = system: Mus musculus; test: Anticonvulsant activity in Carworth farms No.1 albino mouse assessed as protection against subcutaneous metrazole-induced seizures at 300 mg/kg, ip measured after 4 hrs; type: functional, organism-based; design: dose 300 mg/kg
# [37] = system: Mus musculus; test: Anticonvulsant activity in Carworth farms No.1 albino mouse assessed as protection against maximum electroshock at 300 mg/kg, ip measured after 4 hrs; type: functional, organism-based; design: dose 300 mg/kg
# [38] = system: Mus musculus; test: Neurotoxicity in Carworth farms No.1 albino mouse assessed as neurological impairment at 100 mg/kg, ip measured after 0.5 hrs; type: toxicity, organism-based; design: dose 100 mg/kg, route intraperitoneal; conditions: in vivo
# [39] = system: Mus musculus; test: Anticonvulsant activity in Carworth farms No.1 albino mouse assessed as protection against 6 Hz electric current-induced seizure at 100 mg/kg, ip measured after 0.25 hrs; type: functional, organism-based; design: dose 100 mg/kg
compound,measurement,setting,value
O=C1NC(=O)[C@@H]2CCCCN2[C@H]1c1ccccc1,Activity,[1],Non-toxic
same,Activity,[2],inactive
same,Activity,[3],Non-toxic
same,Activity,[4],inactive
same,Activity,[5],Active
same,Activity,[6],Toxic
same,Activity,[7],inactive
same,Activity,[8],Non-toxic
same,Activity,[9],Active
same,Activity,[10],Active
same,Activity,[11],inactive
same,Activity,[12],Active
same,Activity,[13],Non-toxic
same,Activity,[14],Non-toxic
same,Activity,[15],Toxic
same,Activity,[16],inactive
same,Activity,[17],Active
same,Activity,[18],Non-toxic
same,Activity,[19],inactive
same,Activity,[20],Non-toxic
same,Activity,[21],inactive
same,Activity,[22],Non-toxic
same,Activity,[23],Non-toxic
same,ED50,[24],27.2 mg/kg
same,Time,[25],0.25 h
same,Activity,[26],Toxic
same,Activity,[27],inactive
same,Activity,[28],Active
same,Activity,[29],Active
same,Activity,[30],Non-toxic
same,Activity,[31],inactive
same,Activity,[32],Toxic
same,Activity,[33],inactive
same,Activity,[34],Active
same,Activity,[35],inactive
same,Activity,[36],Active
same,Activity,[37],Active
same,Activity,[38],Toxic
same,Activity,[39],Active

# — ChEMBL document CHEMBL1944578, “Synthesis and anticonvulsant activity of novel 2,6-diketopiperazine derivatives. Part 2: Perhydropyrido[1,2-a]pyrazines” (Eur J Med Chem, 2012)
